Patent publication US20210145811A1, “TREATMENT OF CANCER WITH EXON 14 SKIPPING MUTATION(S) OR EXON 14 SKIPPING PHENOTYPE” (Eli Lilly and Company, priority 2016, published 2021)

Key:
Hs746t-derived xenograft = assay: In vivo Hs746t xenograft model; parameters: species or system mouse
Procedure: (§1) Female athymic nude mice (Envigo) are used for this study. Food and water are available ad libitum. Animals are acclimated for 1 week prior to any experimental manipulation. The study is performed in accordance with AAALAC accredited institutional guidelines.
Merestinib is formulated as a solution in 10% PEG 400/90% (20% Captisol in water). Solution is freshly prepared every 7 days.
Hs746t cells are expanded in culture, harvested, and washed in Hank's Balanced Salt Solution (HBSS, GIBCO®). Approximately 5×10^6 cells in HBSS are implanted subcutaneously into the hind flank of the animal. When tumors reach an average size of 150 to 200 mm^3, the animals are randomized into groups of 7. […]
Animals are sacrificed using CO2 and cervical dislocation when tumors grew larger than 2000 mm^3.
(§2) Tumor volumes and body weight are measured bi-weekly. Statistical analysis is performed when 3 of the 7 vehicle treated animals hed been removed from the study due to tumor burden. Tumor volume is transformed to the log scale to equalize variance across time and treatment groups. The log volume data are analyzed with a two-way repeated measures analysis of variance by time and treatment using the MIXED procedures in SAS software (Version 9.3). The correlation model for the repeated measures is spatial power. Treated groups are compared to the control group at each time point. The MIXED procedure is also used separately for each treatment group to calculate adjusted means and standard errors at each time point. Both analyses account for the autocorrelation within each animal and the loss of data that occurs when animals are removed or lost before the end of the study. The adjusted means and standard errors are plotted for each treatment group versus time.
Measure tumor growth with calipers. Calculate tumor volumes by the formula Volume (mm^3)=L×W^2 (π/6) where L represents the larger diameter and W the smaller diameter. Calculate T/C % using the formula T/C %=100×ΔT/ΔC. Where ΔT=mean tumor volume of the drug-treated group on the final day of the study−mean tumor volume of the drug-treated group on the initial day of the dosing and ΔC=mean tumor volume of the control group on the final day of the study−mean tumor volume of the control group on the initial day of the dosing. Calculate changes in body weight by the formula (Weight on observation day−Weight on day 12)/Weight on Day 12×100.

[1] = Body weight and health in Hs746t xenograft study; type: in vivo, mouse; conditions: groups treated with merestinib (6 or 12 mg/kg)
Procedure: as §1
Hs746t cells are expanded in culture, harvested, and washed in Hank's Balanced Salt Solution (HBSS, GIBCO®). Approximately 5×10^6 cells in HBSS are implanted subcutaneously into the hind flank of the animal. When tumors reach an average size of 150 to 200 mm^3, the animals are randomized into groups of 7. Merestinib is prepared and administered via oral gavage at 6 or 12 mg/kg doses on a once daily schedule for 21 days.
as §2, with “Both analyses account for the autocorrelation within each animal and the loss of data that occurs when animals are removed or lost before the end of the study. The adjusted means and standard errors are plotted for each treatment group versus time.” left out

phospho-MET (Y1234/1235) [2] = biological target: T1, phospho-MET (Y1234/1235) (Homo sapiens, UniProt P08581, DEL964-1010); assay: Western blotting of phospho-MET in Hs746t cells; type: cell-based; conditions: Hs746t cells (MET exon 14 skipping), 2 hours incubation, Western blot
T1 construct: Western blots performed on lysates from in vitro cultured cells confirm a strong band corresponding to MET protein; host or cells: Hs746t
Procedure: (§3) Hs746t cells are obtained from ATCC® (Manassas, Va.) and are maintained in DMEM Medium with L-glutamine and 10% fetal bovine serum (FBS). MKN45 cells, expressing wild-type MET, are obtained from JCRB Cell Bank (Japan) and are maintained in RPMI 1640 Medium with L-glutamine, 10% FBS, and sodium pyruvate. Cells are grown at 37° C. with 5% CO2. Cells are seeded into 6-well plates, 1 million cells/well, and incubated overnight. Cells are incubated with merestinib for 2 hours, then are lysed in radioimmunoprecipitation assay (RIPA) buffer containing protease inhibitors. Protein concentrations of cell lysates are measured with the DC™ Protein Assay (BioRad), following manufacturer directions. Lysates are electrophoresed on Novex® 4-20% Tris Glycine gels (Invitrogen), and are transferred onto polyvinylidene difluoride (PVDF) membranes. The blots are probed for total MET (clone D1C2, CELL SIGNALING TECHNOLOGY®, Cat #8198), phospho-MET (Y1234/1235, clone D26, CELL SIGNALING TECHNOLOGY®, Cat #3077), and phospho-MET (Y1003, clone 13D11, CELL SIGNALING TECHNOLOGY®, Cat #3135). Monoclonal Anti-β-Actin (clone AC-15, SIGMA-ALDRICH®, Cat #A5441) is used as a loading control. After incubating with horseradish peroxidase (HRP)-linked secondary antibodies, blots are developed with chemiluminescent substrate and imaged on a Lumi-Imager (Roche).

Hs746t cells = assay: Cell proliferation assay (CELL TITER-GLO); type: cell-based; conditions: Homo sapiens, 120 h, 5 days exposure, n=2, read-out: IC50 in vitro Hs746t cell proliferation
Procedure: Hs746t cells are seeded onto poly-D-lysine, 96-well plates, 3000 cells/well and allowed to attach overnight in a 37° C. with 5% CO2 incubator. Merestinib is serially diluted 1:3 and added to the cells in triplicate. After 120 hours, cell viability is measured with the CELL TITER-GLO® Luminescent Cell Viability Assay (Promega), following manufacturer directions. The data are analyzed with GraphPad Prism v6 software. The assay is performed in duplicate experiments.

phospho-MET (Y1234/1235) [3] = biological target: T2, phospho-MET (Y1234/1235) (Homo sapiens, UniProt P08581); assay: Western blotting of phospho-MET in MKN45 cells; type: cell-based; conditions: MKN45 cells (wild-type MET), 2 hours incubation, Western blot
T2 construct: MKN45 cells, expressing wild-type MET; host or cells: MKN45
Procedure: as §3

## Cc1ccc(C(=O)Nc2ccc(Oc3cc4cnn(C)c4cc3-c3cn[nH]c3)c(F)c2)c(=O)n1-c1ccc(F)cc1 [merestinib, N-(3-Fluoro-4-(1-methyl-6-(1H-pyrazol-4-yl)-1H-indazol-5-yloxy)phenyl)-1-(4-fluorophenyl)-6-methyl-2-oxo-1,2-dihydropyridine-3-carboxamide]
Hs746t-derived xenograft; 6 mg/kg oral gavage once daily, end of study
  tumors showing signs of regrowth (2 consecutively larger tumor volume measurements): 5 of the 7
Hs746t-derived xenograft; 6 mg/kg oral gavage once daily, end of study, p=0.033 vs vehicle
  anti-tumor activity T/C: 18.3%
Hs746t-derived xenograft; 12 mg/kg oral gavage once daily, to the end of the study
  tumor regression: 91.8%
Hs746t-derived xenograft; 12 mg/kg, 5 weeks after treatment terminated
  tumor re-growth after treatment is terminated: no tumor re-growth was observed
Hs746t-derived xenograft; 12 mg/kg, 64 days of dosing
  animals that are complete responders: 6 of the 7
Hs746t-derived xenograft; 12 mg/kg, within 2 months of treatment
  tumor re-growth during treatment (treatment resistance): No tumor re-growth is observed
[1]
  health issues in the animals: no noticeable health issues
phospho-MET (Y1234/1235) [2]
  phosphorylated MET at the Y1234/1235 position: inhibited
Hs746t cells
  IC50: 0.0334 µM
phospho-MET (Y1234/1235) [3]
  phosphorylated MET at the Y1234/1235 position: inhibited
